US20240165096A1, “Anti Viral Therapy” (priority 2021, published 2024)
Structures can show the parent of a compound that is named as a salt. Where two headings read alike, the source gives them in different places.

What was measured:
[1] = test system: SARS-COV-2; assay type: cell-based
[2] = test system: SARS-COV-2; assay: microbe, parasite or virus in culture; assay type: cell-based; details: for decrease in the amount of virus released from infected Calu3 cells: pretreatment 24 h, PHE strain MOI 0.1, plaque assay; for IC50: Severe acute respiratory syndrome coronavirus 2, Calu-3, drug alone, infected Calu3 cells, pre-treated 24 hours prior to infection, 6 concentrations
[3] = test system: SARS-COV-2; details: 5 μM, Calu3 and Vero cells, MOI 0.1, CPE 3 days post infection
[4] = test system: IFNλ
[5] = test system: SARS-COV-2; assay: microbe, parasite or virus in culture; details: Severe acute respiratory syndrome coronavirus 2, Calu-3, in Homo sapiens, read-out: protection from infection of SARS-COV-2 (percent inhibition of CPE)
[6] = test system: SARS-COV-2 NSP12 RNA; assay: RT-qPCR of viral NSP12 RNA in infected Calu3 cells; assay type: cell-based
[7] = test system: Vero cells
Procedure: (§1) Compounds were acoustically transferred into black 384 well optical bottom plates (Nunc-UK). Calu-3 and Vero cells were maintained as described for the infection assay and seeded in the assay-ready plates at a density of 3×10^3 cells/well for Vero cells, and 9×10^3 cells/well for Calu-3 cells. Plates were incubated for 72 h at 37° C. and 5% CO2. To assess cell toxicity, CellTox™ Green Cytotoxicity Assay (Promega-UK) was undertaken following the manufacturer's instructions. Plates were incubated for 15 min prior to recording fluorescence (480/520 nm) using a […] (CLARIOstar Plus; BMG LABTECH, UK).

[8] = test system: Calu3 cells
Procedure: as §1

CCC(CC)COC(=O)[C@H](C)N[P@](=O)(OC[C@H]1O[C@@](C#N)(c2ccc3c(N)ncnn23)[C@H](O)[C@@H]1O)Oc1ccccc1 [Remdesivir]
reduction of virus growth kinetics [1]: 10^3 PFU/mL | reduction in viral titres relative to the DMSO control ([1]; donor #311, 1 μM): 1.47 log10 | decrease in the amount of virus released from infected Calu3 cells ([2]; 1 μM): ~5000 fold | IC50 [2]: ~190 nM

CN1CCC(=C2c3ccccc3C=Cc3ccccc32)CC1 [Cyproheptadine]
antiviral effects in the screens [3]: did not show any antiviral effects

O=C(O)COCCN1CCN([C@H](c2ccccc2)c2ccc(Cl)cc2)CC1 [Levocetirizine Dihydrochloride]
IFNλ release and/or activity (expression) [4]: enhanced IFNλ release and/or activity | SARS-COV-2-mediated cytotoxicity [4]: failed to inhibit cytotoxicity

CN1CCC(=C2c3ccccc3CCc3cccnc32)CC1 [Azatadine]
reduction of virus growth kinetics [1]: 10^2 PFU/mL | SARS-COV-2 titres following treatment ([1]; donor #311, 25 μM): no difference | IFNλ release and/or activity (expression) [4]: enhanced the release and/or activity of IFNλ | SARS-COV-2-mediated cytotoxicity [4]: robustly inhibited | rank among interferon-enhancing drugs [4]: top 1% | IFNλ release and/or activity (expression) ([4]; listed as Azatadine maleate): increase IFN-λ expression | inhibition at 5 µM [5]: ≥ 90% | decrease in the amount of virus released from infected Calu3 cells ([2]; 5 μM): ~100 fold | decrease in the amount of virus released from infected Calu3 cells ([2]; 25 μM): ~5000 fold | IC50 [2]: ~4900 nM | levels of mature infectious viral particles released from infected cells ([2]; both concentrations (5 and 25 μM), plaque assay): substantially reduced | reduction of viral NSP12 RNA levels ([6]; 5 μM, infected Calu3 cells): ~50% | levels of viral NSP12 RNA ([6]; both concentrations (5 and 25 μM), RT-qPCR): substantially reduced | cytotoxicity on Vero cells [7]: not cytotoxic | cytotoxicity on Calu3 cells [8]: not cytotoxic
